Patent US8652087B2, “Method for use of microdialysis” (priority 2009, dated 2014)

Assays:
[1] = Benzocaine release from self-emulsifying microemulsion systems by PMD; type: physicochemical; conditions: occupying the probe window for one minute; Tween 20:Cremophor EL:peppermint oil systems diluted 1:25 in water
Experimental: The medium outside the probe served as the receiver in this case. Before the PMD experiments, various anhydrous liquid systems were made, to be used to release benzocaine. In all cases, two surfactants, Tween 20 and Cremophor EL (both from Sigma Chemical, St. Louis, Mo.), were blended in a 2:1 (weight:weight) ratio. Various amounts of peppermint oil were added (from 0 to 30% oil by weight) to make the anhydrous systems. Benzocaine (50 mg per gram of peppermint oil) was subsequently added to each system, and stirring was done until all benzocaine was dissolved and distributed within the oil and surfactant blend. These anhydrous systems were then diluted 1:25 in water, and used as the dialysate. A probe was immersed in 50 mL of water (which served as the receiver) that initially contained no drug. Since benzocaine is a weak base, various pH values were used, but the pH of the water and dialysate were the same in all cases. The dialysate (containing the microemulsions and acting as the donor) was pumped into the probe window, allowed to remain at rest for various resting times (5-100 seconds), pumped out and collected, and subsequently assayed for benzocaine content to determine the fraction of benzocaine lost as a function of the total time in the probe window. The flow rate Q was 100 μL/min and the sample volume was 5 μL.

[2] = Charcoal MTZ adsorption kinetics study (PMD and direct donor sampling); type: physicochemical; conditions: 37° C., first minute after charcoal addition
Experimental: A charcoal suspension was prepared at least 24 hours before use by adding 0.6 g of activated charcoal (Sigma Chemical, St. Louis, Mo.) to 100 mL of 0.6% Dextran Solution (Birkmeier et al., 1995). A donor solution of MTZ in 0.005N NaOH was made with an initial concentration of C0=200 μg/mL and volume of 48 mL. A probe was immersed in the solution, and PMD was started before adding the charcoal using a dialysate that initially contained no MTZ. Samples were collected every 10 seconds, using a resting time of 8 seconds, a flow rate of 100 μL/min, and a sample volume of 5 μL. After collecting at least six samples, 2 mL of the charcoal suspension was quickly (in 1-2 seconds) mixed into 48 mL of stirred MTZ solution, giving a final volume of 50 mL. […] Samples were collected during 10 second intervals, and the start times for the sampling intervals were 0, 0.2, 0.4, 0.7, 1, 2, 5, 10 and 30 minutes. The flow rate was 100 μL/min, the rest time was 8 seconds, and the sample volume was 5 μL. The samples were immediately analyzed using HPLC. […] Direct sampling of the donor was also done at various times for comparison with the PMD data. The direct donor samples were immediately filtered to remove the activated charcoal and analyzed using HPLC.

red blood cells = conditions: in the first 1-2 minutes; cited from earlier work
[3] = at 37° C.; cited from earlier work

CCOC(=O)c1ccc(N)cc1 [benzocaine]
benzocaine lost from microemulsion dialysate [1]: ≤ 90%

CC(=O)/N=c1/sc(S(N)(=O)=O)nn1C [MTZ, methazolamide]
decline of concentration during the first minute [2]: ~50%
decrease of buffer concentration by uptake into red blood cells (red blood cells): 50%
diffusion coefficient (value of the reference drug) [3]: 4×10^−6 cm^2/s
